According to patent US7012041B2, “Phenylpyridazinones” (Bayer AG, priority 1995, dated 2006):

Columns and labels:
Assay type in all cases: in vivo
Chenopodium [1] = test: Pre-emergence test/greenhouse; conditions: after three weeks
Description: (§1) • Solvent: 5 parts by weight of acetone • Emulsifier: 1 part by weight of alkylaryl polyglycol ether
(§2) To produce a suitable preparation of active compound, 1 part by weight of active compound is mixed with the stated amount of solvent, the stated amount of emulsifier is added and the concentrate is diluted with water to the desired concentration.
(§3) Seeds of the test plants are sown in normal soil. After 24 hours, the soil is watered or sprayed with the preparation of the active compound. It is advantageous to keep the amount of water per unit area constant. The concentration of the active compound in the preparation is immaterial, only the amount of active compound applied per unit area matters.
(§4) After three weeks, the degree of damage to the plants is rated in % damage by comparison with the development of the untreated control.
(§5) The figures denote: • 0%=no effect (like untreated control) • 100%=total destruction

Galinsoga = test: Pre-emergence test/greenhouse; conditions: after three weeks
Description: as §1, §2, §3, §4, §5

Abutilon = test: Pre-emergence test/greenhouse; conditions: for % damage Abutilon: after three weeks; for activity against Abutilon (% damage): application rate between 125 and 500 g/ha, span over the named compounds
Description: as §1, §2, §3, §4, §5

Solanum = test: Pre-emergence test/greenhouse; conditions: after three weeks
Description: as §1, §2, §3, §4, §5

Sunflower = test: Pre-emergence test/greenhouse; conditions: after three weeks
Description: as §1, §2, §3, §4, §5

Maize = test: Pre-emergence test/greenhouse; conditions: after three weeks
Description: as §1, §2, §3, §4, §5

Amaranthus = test: Post-emergence test/greenhouse; conditions: after three weeks
Description: as §1, §2
(§6) Test plants which have a height of 5–15 cm are sprayed with the preparation of the active compound in such a way as to apply the particular amounts of active compound desired per unit area.
as §4, §5

Wheat = test: Post-emergence test/greenhouse; conditions: after three weeks
Description: as §1, §2, §6, §4, §5

Chenopodium [2] = test: Post-emergence test/greenhouse; conditions: after three weeks
Description: as §1, §2, §6, §4, §5

Datura = test: Post-emergence test/greenhouse; conditions: after three weeks
Description: as §1, §2, §6, §4, §5

Polygonum = test: Post-emergence test/greenhouse; conditions: after three weeks
Description: as §1, §2, §6, §4, §5

Veronica = test: Post-emergence test/greenhouse; conditions: after three weeks
Description: as §1, §2, §6, §4, §5

| SMILES | % damage Chenopodium (Chenopodium [1]; 500 g ai/ha) [%] | % damage Galinsoga (Galinsoga; 500 g ai/ha) [%] | % damage Abutilon (Abutilon; 500 g ai/ha) [%] | activity against Abutilon (% damage) (Abutilon) [%] | % damage Solanum (Solanum; 500 g ai/ha) [%] | % damage Sunflower (Sunflower; 500 g ai/ha) [%] | % damage Maize (Maize; 500 g ai/ha) [%] | % damage Amaranthus (Amaranthus; 250 g ai/ha) [%] | % damage Wheat (Wheat; 250 g ai/ha) [%] | % damage Chenopodium (Chenopodium [2]; 250 g ai/ha) [%] | % damage Datura (Datura; 250 g ai/ha) [%] | % damage Polygonum (Polygonum; 250 g ai/ha) [%] | % damage Veronica (Veronica; 250 g ai/ha) [%] | other results |
| --- | --- | --- | --- | --- | --- | --- | --- | --- | --- | --- | --- | --- | --- | --- |
| CCS(=O)(=O)Nc1cc(-n2ncc(C)cc2=O)c(Cl)cc1Cl [Example 34] | 100 | 100 | 100 | 100 | 90 | 20 | 0 | – | – | – | – | – | – | – |
| C#CCOc1cc(-n2ncc(N(C)C)c(Cl)c2=O)c(F)cc1C#N [Example 41] | – | – | – | 100 | – | – | – | 60 | 20 | 90 | 100 | 100 | 100 | % damage Chenopodium (Chenopodium [1]; 125 g ai/ha): 100%; % damage Galinsoga (Galinsoga; 125 g ai/ha): 100%; % damage Abutilon (Abutilon; 125 g ai/ha): 100%; % damage Solanum (Solanum; 125 g ai/ha): 100%; % damage Sunflower (Sunflower; 125 g ai/ha): 0%; % damage Maize (Maize; 125 g ai/ha): 10% |
| Cc1cnn(-c2ccccc2)c(=O)c1Br [(B), 4-Bromo-5-methyl-2-phenyl-pyridazin-3-one, reference compound] | 50 | 30 | 0 | – | 50 | 0 | 0 | 30 | 30 | 50 | 80 | 50 | 40 | – |
| CCS(=O)(=O)Nc1cc(-n2nc(C)ccc2=O)c(F)cc1C#N [Example 15] | 100 | 80 | 100 | 100 | 95 | 0 | 0 | 100 | 5 | 95 | 90 | 80 | 95 | – |
| CCS(=O)(=O)Nc1cc(-n2ncc(NC)c(Cl)c2=O)c(F)cc1C#N [Example 25] | 90 | 100 | 100 | 100 | 60 | – | 0 | – | – | – | – | – | – | – |
| C#CC(C)Oc1cc(-n2nc(C)ccc2=O)c(F)cc1C#N (stereo not shown) [Example 16] | 100 | 100 | 100 | 100 | 100 | 20 | 10 | – | – | – | – | – | – | % damage Amaranthus (Amaranthus; 60 g ai/ha): 100%; % damage Wheat (Wheat; 60 g ai/ha): 5%; % damage Chenopodium (Chenopodium [2]; 60 g ai/ha): 95%; % damage Datura (Datura; 60 g ai/ha): 100%; % damage Polygonum (Polygonum; 60 g ai/ha): 95%; % damage Veronica (Veronica; 60 g ai/ha): 90% |
| Cc1cnn(-c2cc(OC(C)C)c(C#N)cc2F)c(=O)c1 [Example 36] | – | – | – | 100 | – | – | – | – | – | – | – | – | – | % damage Chenopodium (Chenopodium [1]; 250 g ai/ha): 100%; % damage Galinsoga (Galinsoga; 250 g ai/ha): 90%; % damage Abutilon (Abutilon; 250 g ai/ha): 100%; % damage Solanum (Solanum; 250 g ai/ha): 100%; % damage Maize (Maize; 250 g ai/ha): 10% |
| C#CC(CC)Oc1cc(-n2ncc(C)cc2=O)c(F)cc1C#N (stereo not shown) [Example 35] | – | – | – | 100 | – | – | – | – | – | – | – | – | – | % damage Chenopodium (Chenopodium [1]; 250 g ai/ha): 100%; % damage Galinsoga (Galinsoga; 250 g ai/ha): 100%; % damage Abutilon (Abutilon; 250 g ai/ha): 100%; % damage Solanum (Solanum; 250 g ai/ha): 100%; % damage Maize (Maize; 250 g ai/ha): 0%; % damage Amaranthus (Amaranthus; 60 g ai/ha): 95%; % damage Wheat (Wheat; 60 g ai/ha): 20%; % damage Chenopodium (Chenopodium [2]; 60 g ai/ha): 95%; % damage Datura (Datura; 60 g ai/ha): 100%; % damage Polygonum (Polygonum; 60 g ai/ha): 90%; % damage Veronica (Veronica; 60 g ai/ha): 95% |
